# Reference: patent publication US20230398106A1 (NEURORIVE INC, priority 2020, published 2023)
# System: 5×FAD mouse
# Assay: Morris water maze (MWM) task in 5×FAD mice
# Assay type: in vivo
# Procedure: A Morris water maze (MWM) task was conducted to examine an effect on improving cognitive function depending on the administration of the complex composition of the present invention. […] The above markers remained unchanged throughout the test period. The escape platform was placed 1 cm above the water surface or 0.5 to 1.5 cm below the water surface according to the purpose of the experiment. When placed under the water surface, the water was made opaque with white water-based paint so that the escape platform was not visible to the eye. The Morris water maze was divided into four quadrants, i.e., northeast (NE), northwest (NW), southeast (SE) and southwest (SW), wherein the escape platform was placed in the center of the southwest quadrant, and the mouse started randomly from one of the others.
# The escape platform was made visible on Learning DAY 0. Each mouse was trained to recognize that it was possible to escape when they swam toward the escape platform and landed thereon. On DAY 1-4, the escape platform was hidden by being placed under the water, and then the mice learned the position of the escape platform. […] The mice were then immediately transferred to the breeding cage. On DAY 5, the probe test was performed without the escape platform. The probe test was performed by placing the mouse in the farthest part of the quadrant where the escape platform was placed during the training day, and 60 seconds was set as the time limit. The indexes of cognitive function include the escape latency which is the time required for the mouse to find the escape platform and the time spent in the quadrant where the escape platform was placed. It was judged that the shorter the time it takes to escape (FIG. 2A) and the longer the mouse stays in the quadrant where the escape platform was placed (FIG. 2B), the better the memory and learning ability of the mouse.
# Then, each group was subjected to oral administration for 4 weeks to perform the experiment.
compound,measurement,setting,value
"COc1cc2c(cc1OC)C(=O)C(CC1CCN(Cc3ccccc3)CC1)C2 (stereo not drawn) [Donepezil, donepezil]","escape latency reduced by, based on the mutant mouse vehicle group","2 mg/kg of donepezil alone, reduction stated in text",14.2%
same,Escape latency (Increase or decrease compared to mutated mouse vehicle group),"Mutated mouse, Donepezil 2 mg/kg oral, 4 weeks, DAY 4",−14.2%
same,time spent in the target quadrant (Increase or decrease compared to mutated mouse vehicle group),"Mutated mouse, donepezil 2 mg/kg oral, 4 weeks, probe test DAY 5",73.20%
